Test results: ChEMBL document CHEMBL2034833, “Synthesis of chalcone-amidobenzothiazole conjugates as antimitotic and apoptotic inducing agents” (Bioorg Med Chem, 2012)

What was measured:
MCF7 = assay: cells; conditions: Homo sapiens, MCF7, 48 h
Description: Cytotoxicity against human MCF7 cells after 48 hrs by MTT assay

HT-29 = assay: Cytotoxicity against human HT-29 cells after 48 hrs by MTT assay; type: functional, cell-based; conditions: HT-29, 48 h, read-out: IC50
A549 = assay: cells; conditions: Homo sapiens, A549, 48 h
Description: Cytotoxicity against human A549 cells after 48 hrs by MTT assay

A-375 = assay: Cytotoxicity against human A375 cells after 48 hrs by MTT assay; type: functional, cell-based; conditions: A-375, 48 h
ACHN = assay: Cytotoxicity against human ACHN cells after 48 hrs by MTT assay; type: functional, cell-based
[1] = Inhibition of tubulin polymerization at 3 uM after 1 hr by fluorescence assay

IC50 (MCF7) [µM]	IC50 (A549) [µM]	inhibition [1] [%]	SMILES	IC50 (HT-29) [µM]	IC50 (A-375) [µM]	IC50 (ACHN) [µM]
4.2	8.1		CCOc1ccc2nc(NC(=O)COc3cc(/C=C/C(=O)c4cc(OC)c(OC)c(OC)c4)ccc3OC)sc2c1	2.4	5.8	2.6
		59.6	COC(=O)Nc1nc2cc(C(=O)c3cccs3)ccc2[nH]1			
